Reference: article PMC6372683, “Mechanism of the natural product moracin-O derived MO-460 and its targeting protein hnRNPA2B1 on HIF-1α inhibition” (Experimental & Molecular Medicine, 2019)

Tests used:
[1] = test system: HIF-1α; experiment: HIF-1α accumulation under real hypoxia (1% oxygen), western blotting and immunostaining; format: cell-based, human; conditions: 24 h
Description: For immunofluorescence observation, Hep3B cells were seeded on microplates at 2 or 5 × 10^4 cells/mL and cultured for 18 h. […] The medium in the microplate wells was then removed and cells were fixed with 3.7% formaldehyde in PBS for 15 min then permeabilized for 5 min with 100% cold MeOH. Cells were washed with PBS containing 1% bovine serum albumin (PBS-1% BSA), and then treated with 5% bovine serum albumin for 20 min. The cells in each well were treated with HIF-1α antibody in PBS-0.1% BSA then placed in a humidified atmosphere of 5% CO2 at 37 °C and incubated for 60 min. After being washed with PBS-0.1% BSA, treated wells of HIF-1α were incubated with Alexa Fluor 488-conjugated mouse anti-IgG antibody in PBS-0.1% BSA then incubated at room temperature for 60 min. After being washed with PBS-0.1% BSA, the dish wells were overlaid with Hoechst 33342 for 5 min at room temperature and then washed with PBS-0.1% BSA. Fluorescence was photographed with an inverted ECLIPSE Ti-U microscope (Nikon Corporation, Japan).

[2] = test system: hnRNPA2B1 domain-based constructs fused to GFP; experiment: Pull-down assay with GFP-fused domain constructs of hnRNPA2B1; format: binding, human; conditions: GFP-fused N-terminal RNA recognition motifs
[3] = target: T1, hnRNPA2B1 domain-based constructs fused to GFP (Homo sapiens, UniProt P22626); experiment: as above; format: binding
T1 construct: expressed in transfected cells

[4] = target: T2, hnRNPA2B1 GRD (202–353 aa) (Homo sapiens, UniProt P22626); experiment: BLItz association-dissociation binding assay, GRD of hnRNPA2B1; conditions: 6XHis tagged protein, Con. 5 uM, biotin-MO-460 on streptavidin tip
T2 construct: 202–353 aa; His; made in house; host or cells: bacteria (pET28A vector)
T2 sequence (P22626 202-353): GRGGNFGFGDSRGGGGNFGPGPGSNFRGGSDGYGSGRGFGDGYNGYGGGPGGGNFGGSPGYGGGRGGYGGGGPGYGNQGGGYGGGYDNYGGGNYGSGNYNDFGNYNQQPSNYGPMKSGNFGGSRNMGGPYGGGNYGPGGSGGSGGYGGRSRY
Description: (§1) The binding capacity of hnRNPA2B1 to Biotin-MO-460 was also analyzed using a BLItz™ (Fortebio, Inc., CA, US) instrument with a streptavidin-coated biosensor tip (Pall, USA). The streptavidin-coated tips were pre-wetted for 10 min in an incubation buffer (10 mM HEPES pH 7.4, 1% BSA and 0.05% Tween 20). The streptavidin-coated tips were immobilized with 1 μM Biotin-MO-460 in incubation buffer (10 mM HEPES pH 7.4, 1% BSA and 0.05% Tween 20) for 5 min. […] The concentrations were then incubated with HEPES for another 3 min to desorb the protein. Analysis of the accurate and precise kinetic constants was performed by the BLItz data analysis software (BLItz Pro 1.1).

[5] = target: T3, hnRNPA2B1 RRM (1–193 aa) (Homo sapiens, UniProt P22626); experiment: BLItz association-dissociation binding assay, RRM of hnRNPA2B1; conditions: 6XHis tagged protein, biotin-MO-460 on streptavidin tip
T3 construct: 1–193 aa; His; made in house; host or cells: bacteria (pET28A vector)
T3 sequence (P22626 1-193): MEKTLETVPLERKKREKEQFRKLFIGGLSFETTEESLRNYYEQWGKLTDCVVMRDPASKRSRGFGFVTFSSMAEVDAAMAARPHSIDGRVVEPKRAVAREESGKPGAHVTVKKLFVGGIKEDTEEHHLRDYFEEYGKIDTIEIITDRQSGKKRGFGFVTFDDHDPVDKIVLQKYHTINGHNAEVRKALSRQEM
Description: as §1

[6] = target: T4, full-length hnRNPA2B1 (1–353 aa) (Homo sapiens, UniProt P22626); experiment: BLItz association-dissociation binding assay, full-length hnRNPA2B1; conditions: 6XHis tagged protein, Con. 5 uM, biotin-MO-460 on streptavidin tip
T4 construct: 1–353 aa; His; made in house; host or cells: bacteria (pET28A vector)
T4 sequence (P22626 whole entry, the tested form may be a part): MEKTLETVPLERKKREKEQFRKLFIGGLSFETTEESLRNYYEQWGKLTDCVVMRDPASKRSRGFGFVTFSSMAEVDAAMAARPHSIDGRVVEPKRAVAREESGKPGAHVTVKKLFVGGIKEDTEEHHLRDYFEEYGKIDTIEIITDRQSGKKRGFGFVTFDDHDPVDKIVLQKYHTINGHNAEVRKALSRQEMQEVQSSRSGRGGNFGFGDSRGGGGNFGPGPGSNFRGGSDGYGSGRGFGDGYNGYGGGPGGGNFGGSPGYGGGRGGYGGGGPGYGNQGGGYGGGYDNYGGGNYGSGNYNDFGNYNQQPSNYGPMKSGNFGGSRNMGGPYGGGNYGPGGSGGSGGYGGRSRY
Description: as §1

Q: Which HIF-1α accumulation [1] does the source give for CC(C)(O)[C@H]1Cc2cc3cc(-c4cc(O)cc(O)c4)oc3cc2O1 [(R)-(-)-moracin O, (R)-(-)-moracin-O, reference compound] here?
A: reduction in HIF-1α accumulation

Q: Which melting point does the source give for CC(C)(O)[C@H]1Cc2cc3cc(-c4ccc(OCC(=O)NCCOCCOCCNC(=O)CCCC[C@@H]5SC[C@@H]6NC(=O)N[C@@H]65)cc4)oc3cc2O1 [biotin-MO-460, (R)-5-(2-Oxo-hexahydro-thieno[3,4-d]-imidazol-4-yl)-pentanoic acid-(2-{2-[2-(2-{4-[6-(1-hydroxy-1-methyl-ethyl)-5,6-dihydro-benzo[1,2-b;5,4-b']difuran-2-yl]-phenoxy}-acetyl-amino)-ethoxy]-ethoxy}-ethyl)-amide] here?
A: 165.1 to 168.2 °C (dec.)

Q: And the “binding of RRM1, RRM2 and RRM1-RRM2 in pull-down” value [2]?
A: did not bind

Q: What about the “binding of C-terminal glycine-rich domain (GRD) in pull-down” value ([3]; GFP-fused GRD) of the same molecule?
A: strongly bound

Q: And the “binding of full-length hnRNPA2B1 in pull-down” value ([3]; GFP-fused full-length hnRNPA2B1)?
A: strongly bound

Q: What about the Kd [4] of the same molecule?
A: 6.6 µM

Q: What about the Kd [5] of the same molecule?
A: no specific interactions

Q: What about the Kd [6] of the same molecule?
A: 11.4 µM
